Measured values taken from patent publication US5929075A, “Apolipoprotein-B synthesis inhibitors” (Janssen Pharmaceutica, N.V., priority 1994, dated 1999).

Tested on: apolipoprotein B
Assay: Apolipoprotein B (apo B) inhibition test in cultured human liver cells (Hepg2-cells)
Type: cell-based
Conditions: concentration of the drug needed to reduce apoB secretion to 50% of the control, overnight at 37° C.
Description: Cultured human liver cells (Hepg2-cells), which synthesize and secrete low-density lipoproteins, were incubated overnight at 37° C. in a liquid medium containing radioactively labelled leucine. Thus radioactively labelled leucine was incorporated into the apolipoprotein B. The liquid medium was decanted and the apolipoprotein B was isolated by means of a double immunoprecipitation, i.e. first an apolipoprotein B-specific antibody (antibody1) was added to the liquid medium and subsequently a second antibody (antibody2) was added which binds specifically to the apoB-antibody1 -complex. The thus formed apoB-antibody1 -antibody2 complex precipitated and was isolated by centrifuge. Quantification of the amount of apolipoprotein B synthesized during the night resulted from measuring the radioactivity of the isolated complex. To measure the inhibiting activity of the test compound, that test compound was added to the liquid medium at different concentrations and the concentration of apolipoprotein B synthesized in the presence of a test compound (concentration apoB(after)) was compared to the concentration of apolipoprotein B which was synthesized in the absence of the test compound (concentration apoB(control)). For each experiment the inhibition of apolipoprotein-B formation was expressed as
% inhibition=100×(1-concentration of apoB(after)/concentration
When more experiments were carried out for the same concentration, the median value of the inhibition calculated for these experiments was calculated. IC50 -values (concentration of the drug needed to reduce apoB secretion to 50% of the control) were also computed.

- IC50: 23 nM
SMILES: CC[C@@H](C)n1ncn(-c2ccc(N3CCN(c4ccc(OC[C@@H]5CO[C@@](CSc6nncn6C)(c6ccc(Cl)cc6)O5)cc4)CC3)cc2)c1=O [Compound 40]
